Measurements as given in patent publication US4245106A, “Process for the preparation of 1-alkyl-3-aryl-4-pyrazolecarboxylates” (Monsanto Company, priority 1979, dated 1981).

Tests used:
Format in all cases: in vivo
Barnyard grass [1] = test: pre-emergent herbicidal activity test
Protocol: (§1) Table II summarizes results of tests conducted to determine the pre-emergent as well as the post-emergent herbicidal activity of the compounds. The pre-emergent test was conducted as follows:
(§2) A good grade of top soil was placed in aluminum pans and compacted to a depth of three-eighths to one-half inch from the top of the pan. On the top of the soil was placed a predetermined number of seeds or vegetative propagules of various plant species. The soil required to level fill the pans after seeding or adding vegetative propagules was weighed into a pan. A known amount of the active ingredient applied in a solvent or as a wettable powder and the soil were thoroughly mixed, and used as a cover layer for prepared pans. After treatment the pans were moved into a greenhouse bench where they were watered from below as needed to give adequate moisture for germination and growth.
(§3) A herbicial rating code was used to signify the extent of phytotoxicity of each species. The rating are defined as follows: […]

Bromus tectorum [2] = test: pre-emergent herbicidal activity test
Protocol: as §1, §2, §3

Canada Thistle [3] = test: pre-emergent herbicidal activity test
Protocol: as §1, §2, §3

Cocklebur [4] = test: pre-emergent herbicidal activity test
Protocol: as §1, §2, §3

Johnsongrass [5] = test: pre-emergent herbicidal activity test
Protocol: as §1, §2, §3

Lambsquarter [6] = test: pre-emergent herbicidal activity test
Protocol: as §1, §2, §3

Morningglory [7] = test: pre-emergent herbicidal activity test
Protocol: as §1, §2, §3

Nutsedge [8] = test: pre-emergent herbicidal activity test
Protocol: as §1, §2, §3

Quackgrass [9] = test: pre-emergent herbicidal activity test
Protocol: as §1, §2, §3

Smartweed [10] = test: pre-emergent herbicidal activity test
Protocol: as §1, §2, §3

Velvetleaf [11] = test: pre-emergent herbicidal activity test
Protocol: as §1, §2, §3

Barnyard grass [12] = test: post-emergent herbicidal activity test
Protocol: (§4) The post-emergent tests were conducted as follows. The active ingredients are applied in spray form to two or three-week old specimens of various plant species. The spray, a solution or wettable powder suspension containing the appropriate rate of active ingredient to give the desired test rate and a surfactant, is applied to the plants. The treated plants are placed in a greenhouse and unless otherwise noted approximately four weeks later the effects are observed and recorded.

Bromus tectorum [13] = test: post-emergent herbicidal activity test
Protocol: as §4

Canada Thistle [14] = test: post-emergent herbicidal activity test
Protocol: as §4

Cocklebur [15] = test: post-emergent herbicidal activity test
Protocol: as §4

Johnsongrass [16] = test: post-emergent herbicidal activity test
Protocol: as §4

Lambsquarter [17] = test: post-emergent herbicidal activity test
Protocol: as §4

Morningglory [18] = test: post-emergent herbicidal activity test
Protocol: as §4

Nutsedge [19] = test: post-emergent herbicidal activity test
Protocol: as §4

Quackgrass [20] = test: post-emergent herbicidal activity test
Protocol: as §4

Smartweed [21] = test: post-emergent herbicidal activity test
Protocol: as §4

Velvetleaf [22] = test: post-emergent herbicidal activity test
Protocol: as §4

[23] = *11.2 Kg/Ha, observed approximately 14 days after treatment
[24] = 11.2 Kg/Ha, approximately 28 days after seeding and treating
[25] = 11.2 Kg/Ha, approximately four weeks later
Further: ranges in brackets are in %.

CCCCCCOC(=O)c1cn(C)nc1-c1cccc(C(F)(F)F)c1 [Example 21]
Pre-Emergent herbicidal rating, K Barnyard grass (Barnyard grass [1]; [23]): 1 (25-49) | Pre-Emergent herbicidal rating, J Bromus tectorum (Bromus tectorum [2]; [23]): 0 (0-24) | Pre-Emergent herbicidal rating, A Canada Thistle (Canada Thistle [3]; [23]): 0 (0-24) | Pre-Emergent herbicidal rating, B Cocklebur (Cocklebur [4]; [23]): 0 (0-24) | Pre-Emergent herbicidal rating, I Johnsongrass (Johnsongrass [5]; [23]): 0 (0-24) | Pre-Emergent herbicidal rating, E Lambsquarter (Lambsquarter [6]; [23]): 0 (0-24) | Pre-Emergent herbicidal rating, D Morningglory (Morningglory [7]; [23]): 0 (0-24) | Pre-Emergent herbicidal rating, G Nutsedge (Nutsedge [8]; [23]): 0 (0-24) | Pre-Emergent herbicidal rating, H Quackgrass (Quackgrass [9]; [23]): 0 (0-24) | Pre-Emergent herbicidal rating, F Smartweed (Smartweed [10]; [23]): 0 (0-24) | Pre-Emergent herbicidal rating, C Velvetleaf (Velvetleaf [11]; [23]): 0 (0-24) | Post-Emergent herbicidal rating, K Barnyard grass (Barnyard grass [12]; [23]): 1 (25-49) | Post-Emergent herbicidal rating, J Bromus tectorum (Bromus tectorum [13]; [23]): 0 (0-24) | Post-Emergent herbicidal rating, A Canada Thistle (Canada Thistle [14]; [23]): 1 (25-49) | Post-Emergent herbicidal rating, B Cocklebur (Cocklebur [15]; [23]): 1 (25-49) | Post-Emergent herbicidal rating, I Johnsongrass (Johnsongrass [16]; [23]): 1 (25-49) | Post-Emergent herbicidal rating, E Lambsquarter (Lambsquarter [17]; [23]): 2 (50-74) | Post-Emergent herbicidal rating, D Morningglory (Morningglory [18]; [23]): 1 (25-49) | Post-Emergent herbicidal rating, G Nutsedge (Nutsedge [19]; [23]): 0 (0-24) | Post-Emergent herbicidal rating, H Quackgrass (Quackgrass [20]; [23]): 0 (0-24) | Post-Emergent herbicidal rating, F Smartweed (Smartweed [21]; [23]): 1 (25-49) | Post-Emergent herbicidal rating, C Velvetleaf (Velvetleaf [22]; [23]): 1 (25-49)

Cn1cc(C(=O)OCCOc2ccccc2)c(-c2cccc(C(F)(F)F)c2)n1 [Example 22]
Pre-Emergent herbicidal rating, K Barnyard grass (Barnyard grass [1]; [23]): 0 (0-24) | Pre-Emergent herbicidal rating, J Bromus tectorum (Bromus tectorum [2]; [23]): 0 (0-24) | Pre-Emergent herbicidal rating, A Canada Thistle (Canada Thistle [3]; [23]): 3 (75-100) | Pre-Emergent herbicidal rating, B Cocklebur (Cocklebur [4]; [23]): 0 (0-24) | Pre-Emergent herbicidal rating, I Johnsongrass (Johnsongrass [5]; [23]): 0 (0-24) | Pre-Emergent herbicidal rating, E Lambsquarter (Lambsquarter [6]; [23]): 3 (75-100) | Pre-Emergent herbicidal rating, D Morningglory (Morningglory [7]; [23]): 1 (25-49) | Pre-Emergent herbicidal rating, G Nutsedge (Nutsedge [8]; [23]): 0 (0-24) | Pre-Emergent herbicidal rating, H Quackgrass (Quackgrass [9]; [23]): 0 (0-24) | Pre-Emergent herbicidal rating, F Smartweed (Smartweed [10]; [23]): 0 (0-24) | Pre-Emergent herbicidal rating, C Velvetleaf (Velvetleaf [11]; [23]): 0 (0-24) | Post-Emergent herbicidal rating, K Barnyard grass (Barnyard grass [12]; [23]): 0 (0-24) | Post-Emergent herbicidal rating, J Bromus tectorum (Bromus tectorum [13]; [23]): 0 (0-24) | Post-Emergent herbicidal rating, A Canada Thistle (Canada Thistle [14]; [23]): 1 (25-49) | Post-Emergent herbicidal rating, B Cocklebur (Cocklebur [15]; [23]): 0 (0-24) | Post-Emergent herbicidal rating, I Johnsongrass (Johnsongrass [16]; [23]): 0 (0-24) | Post-Emergent herbicidal rating, E Lambsquarter (Lambsquarter [17]; [23]): 0 (0-24) | Post-Emergent herbicidal rating, D Morningglory (Morningglory [18]; [23]): 0 (0-24) | Post-Emergent herbicidal rating, G Nutsedge (Nutsedge [19]; [23]): 0 (0-24) | Post-Emergent herbicidal rating, H Quackgrass (Quackgrass [20]; [23]): 0 (0-24) | Post-Emergent herbicidal rating, F Smartweed (Smartweed [21]; [23]): 0 (0-24) | Post-Emergent herbicidal rating, C Velvetleaf (Velvetleaf [22]; [23]): 0 (0-24)

CCSCCOC(=O)c1cn(C)nc1-c1cccc(C(F)(F)F)c1 [Example 23]
Pre-Emergent herbicidal rating, K Barnyard grass (Barnyard grass [1]; [23]): 1 (25-49) | Pre-Emergent herbicidal rating, J Bromus tectorum (Bromus tectorum [2]; [23]): 1 (25-49) | Pre-Emergent herbicidal rating, A Canada Thistle (Canada Thistle [3]; [23]): 0 (0-24) | Pre-Emergent herbicidal rating, B Cocklebur (Cocklebur [4]; [23]): 0 (0-24) | Pre-Emergent herbicidal rating, I Johnsongrass (Johnsongrass [5]; [23]): 0 (0-24) | Pre-Emergent herbicidal rating, E Lambsquarter (Lambsquarter [6]; [23]): 3 (75-100) | Pre-Emergent herbicidal rating, D Morningglory (Morningglory [7]; [23]): 1 (25-49) | Pre-Emergent herbicidal rating, G Nutsedge (Nutsedge [8]; [23]): 0 (0-24) | Pre-Emergent herbicidal rating, H Quackgrass (Quackgrass [9]; [23]): 0 (0-24) | Pre-Emergent herbicidal rating, F Smartweed (Smartweed [10]; [23]): 1 (25-49) | Pre-Emergent herbicidal rating, C Velvetleaf (Velvetleaf [11]; [23]): 1 (25-49) | Post-Emergent herbicidal rating, K Barnyard grass (Barnyard grass [12]; [23]): 1 (25-49) | Post-Emergent herbicidal rating, J Bromus tectorum (Bromus tectorum [13]; [23]): 0 (0-24) | Post-Emergent herbicidal rating, A Canada Thistle (Canada Thistle [14]; [23]): 1 (25-49) | Post-Emergent herbicidal rating, B Cocklebur (Cocklebur [15]; [23]): 1 (25-49) | Post-Emergent herbicidal rating, I Johnsongrass (Johnsongrass [16]; [23]): 0 (0-24) | Post-Emergent herbicidal rating, E Lambsquarter (Lambsquarter [17]; [23]): 2 (50-74) | Post-Emergent herbicidal rating, D Morningglory (Morningglory [18]; [23]): 1 (25-49) | Post-Emergent herbicidal rating, G Nutsedge (Nutsedge [19]; [23]): 0 (0-24) | Post-Emergent herbicidal rating, H Quackgrass (Quackgrass [20]; [23]): 1 (25-49) | Post-Emergent herbicidal rating, F Smartweed (Smartweed [21]; [23]): 1 (25-49) | Post-Emergent herbicidal rating, C Velvetleaf (Velvetleaf [22]; [23]): 1 (25-49)

CCCCOC(=O)c1cn(C)nc1-c1cccc(C(F)(F)F)c1 [Example 30]
Pre-Emergent herbicidal rating, K Barnyard grass (Barnyard grass [1]; [24]): 3 (75-100) | Pre-Emergent herbicidal rating, J Bromus tectorum (Bromus tectorum [2]; [24]): 2 (50-74) | Pre-Emergent herbicidal rating, A Canada Thistle (Canada Thistle [3]; [24]): 2 (50-74) | Pre-Emergent herbicidal rating, B Cocklebur (Cocklebur [4]; [24]): 0 (0-24) | Pre-Emergent herbicidal rating, I Johnsongrass (Johnsongrass [5]; [24]): 0 (0-24) | Pre-Emergent herbicidal rating, E Lambsquarter (Lambsquarter [6]; [24]): 3 (75-100) | Pre-Emergent herbicidal rating, D Morningglory (Morningglory [7]; [24]): 0 (0-24) | Pre-Emergent herbicidal rating, G Nutsedge (Nutsedge [8]; [24]): 0 (0-24) | Pre-Emergent herbicidal rating, H Quackgrass (Quackgrass [9]; [24]): 0 (0-24) | Pre-Emergent herbicidal rating, F Smartweed (Smartweed [10]; [24]): 3 (75-100) | Pre-Emergent herbicidal rating, C Velvetleaf (Velvetleaf [11]; [24]): 1 (25-49) | Post-Emergent herbicidal rating, K Barnyard grass (Barnyard grass [12]; [25]): 1 (25-49) | Post-Emergent herbicidal rating, J Bromus tectorum (Bromus tectorum [13]; [25]): 1 (25-49) | Post-Emergent herbicidal rating, A Canada Thistle (Canada Thistle [14]; [25]): 0 (0-24) | Post-Emergent herbicidal rating, B Cocklebur (Cocklebur [15]; [25]): 1 (25-49) | Post-Emergent herbicidal rating, I Johnsongrass (Johnsongrass [16]; [25]): 1 (25-49) | Post-Emergent herbicidal rating, E Lambsquarter (Lambsquarter [17]; [25]): 3 (75-99) | Post-Emergent herbicidal rating, D Morningglory (Morningglory [18]; [25]): 1 (25-49) | Post-Emergent herbicidal rating, G Nutsedge (Nutsedge [19]; [25]): 0 (0-24) | Post-Emergent herbicidal rating, H Quackgrass (Quackgrass [20]; [25]): 0 (0-24) | Post-Emergent herbicidal rating, F Smartweed (Smartweed [21]; [25]): 0 (0-24) | Post-Emergent herbicidal rating, C Velvetleaf (Velvetleaf [22]; [25]): 1 (25-49)
